Columns and labels:
[1] = target: Gamma-aminobutyric acid receptor subunit alpha-1 (Rattus norvegicus, UniProt P62813)
[2] = target: T1, Alpha-1A adrenergic receptor (Rattus norvegicus, UniProt P43140)
T1 sequence (P43140 whole entry): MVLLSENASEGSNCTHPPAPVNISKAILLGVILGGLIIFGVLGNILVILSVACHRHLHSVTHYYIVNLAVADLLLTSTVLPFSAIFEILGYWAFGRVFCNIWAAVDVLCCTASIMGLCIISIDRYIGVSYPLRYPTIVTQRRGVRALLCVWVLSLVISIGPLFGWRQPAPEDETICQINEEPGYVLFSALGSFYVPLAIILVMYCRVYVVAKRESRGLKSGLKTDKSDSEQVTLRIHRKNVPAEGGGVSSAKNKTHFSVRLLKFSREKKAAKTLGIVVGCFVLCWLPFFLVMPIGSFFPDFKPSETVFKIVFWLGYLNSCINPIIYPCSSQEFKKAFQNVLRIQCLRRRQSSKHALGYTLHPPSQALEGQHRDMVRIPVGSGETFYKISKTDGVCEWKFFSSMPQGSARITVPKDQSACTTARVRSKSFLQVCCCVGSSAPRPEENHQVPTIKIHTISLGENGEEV

[3] = target: 5-hydroxytryptamine receptor 1D (Homo sapiens, UniProt P28221)
Sequence of 5-hydroxytryptamine receptor 1D (P28221 whole entry): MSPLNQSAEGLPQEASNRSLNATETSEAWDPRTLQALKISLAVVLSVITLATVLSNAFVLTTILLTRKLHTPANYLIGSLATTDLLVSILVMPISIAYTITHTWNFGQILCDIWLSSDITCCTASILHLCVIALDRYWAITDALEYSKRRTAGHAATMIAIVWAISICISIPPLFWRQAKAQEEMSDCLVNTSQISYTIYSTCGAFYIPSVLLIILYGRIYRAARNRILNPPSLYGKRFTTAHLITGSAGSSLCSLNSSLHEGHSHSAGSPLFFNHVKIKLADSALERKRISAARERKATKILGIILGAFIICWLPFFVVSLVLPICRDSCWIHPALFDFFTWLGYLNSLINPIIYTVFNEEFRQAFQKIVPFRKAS

[4] = target: T2, Alpha-2C adrenergic receptor (Rattus norvegicus, UniProt P22086)
T2 sequence (P22086 whole entry): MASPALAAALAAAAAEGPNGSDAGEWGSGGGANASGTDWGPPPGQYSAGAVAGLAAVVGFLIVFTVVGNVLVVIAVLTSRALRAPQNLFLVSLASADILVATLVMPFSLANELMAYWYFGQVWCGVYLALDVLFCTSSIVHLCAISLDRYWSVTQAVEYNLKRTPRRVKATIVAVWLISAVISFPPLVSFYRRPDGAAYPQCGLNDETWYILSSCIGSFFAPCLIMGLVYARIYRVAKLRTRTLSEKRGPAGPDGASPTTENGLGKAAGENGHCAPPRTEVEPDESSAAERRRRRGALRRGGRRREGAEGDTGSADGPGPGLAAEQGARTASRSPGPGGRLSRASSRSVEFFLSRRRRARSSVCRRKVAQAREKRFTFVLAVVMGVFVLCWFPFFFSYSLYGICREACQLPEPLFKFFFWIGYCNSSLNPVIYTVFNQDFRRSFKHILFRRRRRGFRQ

D(2) dopamine receptor = D(2) dopamine receptor (Rattus norvegicus, UniProt P61169)
Sequence of D(2) dopamine receptor (P61169 whole entry): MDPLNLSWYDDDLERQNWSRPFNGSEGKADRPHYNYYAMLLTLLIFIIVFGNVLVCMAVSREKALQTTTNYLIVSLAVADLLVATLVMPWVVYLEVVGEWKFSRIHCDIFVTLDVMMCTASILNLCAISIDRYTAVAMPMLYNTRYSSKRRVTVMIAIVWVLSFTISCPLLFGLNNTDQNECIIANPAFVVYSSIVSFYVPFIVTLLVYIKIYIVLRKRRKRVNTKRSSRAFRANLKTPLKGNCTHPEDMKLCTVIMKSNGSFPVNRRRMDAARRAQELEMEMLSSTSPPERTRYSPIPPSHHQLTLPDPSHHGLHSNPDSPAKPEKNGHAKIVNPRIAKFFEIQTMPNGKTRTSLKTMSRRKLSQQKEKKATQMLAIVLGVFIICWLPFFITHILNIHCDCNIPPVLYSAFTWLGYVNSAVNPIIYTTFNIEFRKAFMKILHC

Histamine H1 receptor = Histamine H1 receptor (Rattus norvegicus, UniProt P31390)
Sequence of Histamine H1 receptor (P31390 whole entry): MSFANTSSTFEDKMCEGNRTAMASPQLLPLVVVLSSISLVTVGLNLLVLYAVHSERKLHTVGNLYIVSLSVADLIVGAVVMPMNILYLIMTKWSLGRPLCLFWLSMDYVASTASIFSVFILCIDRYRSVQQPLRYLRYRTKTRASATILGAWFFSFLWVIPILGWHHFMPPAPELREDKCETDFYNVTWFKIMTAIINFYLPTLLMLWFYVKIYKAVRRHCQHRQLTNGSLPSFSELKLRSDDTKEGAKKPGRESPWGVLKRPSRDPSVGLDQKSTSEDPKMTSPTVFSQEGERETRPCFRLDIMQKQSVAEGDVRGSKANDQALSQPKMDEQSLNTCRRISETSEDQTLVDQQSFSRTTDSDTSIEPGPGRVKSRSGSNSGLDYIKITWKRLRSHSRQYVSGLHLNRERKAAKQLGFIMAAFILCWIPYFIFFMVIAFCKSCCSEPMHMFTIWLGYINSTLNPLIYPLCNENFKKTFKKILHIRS

D(1A) dopamine receptor = D(1A) dopamine receptor (Rattus norvegicus, UniProt P18901)
Sequence of D(1A) dopamine receptor (P18901 whole entry): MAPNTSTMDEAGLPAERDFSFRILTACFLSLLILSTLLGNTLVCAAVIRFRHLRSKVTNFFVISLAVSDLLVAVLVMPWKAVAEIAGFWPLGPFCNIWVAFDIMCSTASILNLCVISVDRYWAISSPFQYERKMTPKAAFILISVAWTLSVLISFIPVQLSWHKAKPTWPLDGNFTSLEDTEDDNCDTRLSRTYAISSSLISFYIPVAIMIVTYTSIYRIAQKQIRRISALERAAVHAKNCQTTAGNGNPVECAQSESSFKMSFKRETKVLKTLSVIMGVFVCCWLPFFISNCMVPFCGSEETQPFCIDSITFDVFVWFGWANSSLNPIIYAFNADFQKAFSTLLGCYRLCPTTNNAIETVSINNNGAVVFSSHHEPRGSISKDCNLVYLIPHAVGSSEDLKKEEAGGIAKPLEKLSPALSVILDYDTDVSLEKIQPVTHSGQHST

[5] = target: 5-hydroxytryptamine receptor 2A (Homo sapiens, UniProt P28223)
Sequence of 5-hydroxytryptamine receptor 2A (P28223 whole entry): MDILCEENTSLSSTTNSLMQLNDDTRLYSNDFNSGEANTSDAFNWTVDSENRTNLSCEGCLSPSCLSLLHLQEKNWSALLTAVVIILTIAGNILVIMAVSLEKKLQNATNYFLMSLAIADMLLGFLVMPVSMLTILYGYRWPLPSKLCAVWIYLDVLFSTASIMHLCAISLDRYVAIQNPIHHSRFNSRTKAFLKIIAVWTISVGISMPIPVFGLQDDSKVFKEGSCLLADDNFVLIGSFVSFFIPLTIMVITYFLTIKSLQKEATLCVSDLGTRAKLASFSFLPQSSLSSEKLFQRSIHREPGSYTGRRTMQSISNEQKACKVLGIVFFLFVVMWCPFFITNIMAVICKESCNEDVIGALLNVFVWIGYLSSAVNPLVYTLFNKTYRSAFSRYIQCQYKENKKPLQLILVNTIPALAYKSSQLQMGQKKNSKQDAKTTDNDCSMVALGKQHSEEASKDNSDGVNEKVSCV

[6] = target: T3, Muscarinic acetylcholine receptor M2 (Rattus norvegicus, UniProt P10980)
T3 sequence (P10980 whole entry): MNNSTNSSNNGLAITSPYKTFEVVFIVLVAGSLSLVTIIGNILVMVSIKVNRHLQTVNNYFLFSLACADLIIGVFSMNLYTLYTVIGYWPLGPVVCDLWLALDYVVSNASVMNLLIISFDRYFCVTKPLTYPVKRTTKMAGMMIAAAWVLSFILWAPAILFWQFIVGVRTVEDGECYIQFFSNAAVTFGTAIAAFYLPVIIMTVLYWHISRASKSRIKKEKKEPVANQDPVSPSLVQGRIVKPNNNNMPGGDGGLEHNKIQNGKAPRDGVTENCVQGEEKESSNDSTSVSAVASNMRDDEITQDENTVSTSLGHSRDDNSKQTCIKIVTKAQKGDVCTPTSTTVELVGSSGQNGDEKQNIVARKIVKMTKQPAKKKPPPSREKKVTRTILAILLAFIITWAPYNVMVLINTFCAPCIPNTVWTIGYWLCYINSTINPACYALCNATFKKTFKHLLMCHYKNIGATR

[7] = target: Beta-2 adrenergic receptor (Rattus norvegicus, UniProt P10608)
Sequence of Beta-2 adrenergic receptor (P10608 whole entry): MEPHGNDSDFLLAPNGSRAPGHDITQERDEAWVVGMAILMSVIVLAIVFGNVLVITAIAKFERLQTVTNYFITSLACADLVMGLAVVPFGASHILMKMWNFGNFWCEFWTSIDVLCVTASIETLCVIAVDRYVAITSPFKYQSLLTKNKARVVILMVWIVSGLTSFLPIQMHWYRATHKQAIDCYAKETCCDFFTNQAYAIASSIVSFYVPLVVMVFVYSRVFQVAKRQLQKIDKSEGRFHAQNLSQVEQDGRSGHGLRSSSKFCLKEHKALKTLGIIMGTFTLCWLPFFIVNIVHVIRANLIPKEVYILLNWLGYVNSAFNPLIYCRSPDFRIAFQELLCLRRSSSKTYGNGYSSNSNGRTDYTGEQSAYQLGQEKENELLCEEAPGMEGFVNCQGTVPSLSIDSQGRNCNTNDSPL

[8] = target: T4, 5-hydroxytryptamine receptor 2C (Homo sapiens, UniProt P28335)
T4 sequence (P28335 whole entry): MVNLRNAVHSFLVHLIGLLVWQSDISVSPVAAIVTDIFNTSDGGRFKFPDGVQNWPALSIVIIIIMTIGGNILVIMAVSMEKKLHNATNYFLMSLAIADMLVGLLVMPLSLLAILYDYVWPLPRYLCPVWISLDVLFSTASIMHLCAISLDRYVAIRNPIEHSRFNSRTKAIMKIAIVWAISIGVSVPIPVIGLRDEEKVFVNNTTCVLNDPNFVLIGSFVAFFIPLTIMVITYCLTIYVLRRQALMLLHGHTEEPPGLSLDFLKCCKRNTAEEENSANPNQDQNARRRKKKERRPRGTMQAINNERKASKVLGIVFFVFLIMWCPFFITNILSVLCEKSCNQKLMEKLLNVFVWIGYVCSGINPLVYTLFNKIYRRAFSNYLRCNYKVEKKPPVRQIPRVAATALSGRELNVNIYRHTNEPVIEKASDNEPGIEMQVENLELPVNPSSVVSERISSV

[9] = target: T5, 5-hydroxytryptamine receptor 1F (Homo sapiens, UniProt P30939)
T5 sequence (P30939 whole entry): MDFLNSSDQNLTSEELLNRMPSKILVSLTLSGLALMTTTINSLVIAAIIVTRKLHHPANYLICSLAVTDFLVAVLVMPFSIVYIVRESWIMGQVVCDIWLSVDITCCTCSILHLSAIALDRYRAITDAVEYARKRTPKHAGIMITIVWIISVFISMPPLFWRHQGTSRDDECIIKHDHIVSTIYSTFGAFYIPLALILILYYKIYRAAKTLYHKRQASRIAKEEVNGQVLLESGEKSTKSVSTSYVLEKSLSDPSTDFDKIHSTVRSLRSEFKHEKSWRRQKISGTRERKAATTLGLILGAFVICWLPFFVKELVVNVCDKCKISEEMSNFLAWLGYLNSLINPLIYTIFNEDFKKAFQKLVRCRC

[10] = target: 5-hydroxytryptamine receptor 2B (Homo sapiens, UniProt P41595)
Sequence of 5-hydroxytryptamine receptor 2B (P41595 whole entry): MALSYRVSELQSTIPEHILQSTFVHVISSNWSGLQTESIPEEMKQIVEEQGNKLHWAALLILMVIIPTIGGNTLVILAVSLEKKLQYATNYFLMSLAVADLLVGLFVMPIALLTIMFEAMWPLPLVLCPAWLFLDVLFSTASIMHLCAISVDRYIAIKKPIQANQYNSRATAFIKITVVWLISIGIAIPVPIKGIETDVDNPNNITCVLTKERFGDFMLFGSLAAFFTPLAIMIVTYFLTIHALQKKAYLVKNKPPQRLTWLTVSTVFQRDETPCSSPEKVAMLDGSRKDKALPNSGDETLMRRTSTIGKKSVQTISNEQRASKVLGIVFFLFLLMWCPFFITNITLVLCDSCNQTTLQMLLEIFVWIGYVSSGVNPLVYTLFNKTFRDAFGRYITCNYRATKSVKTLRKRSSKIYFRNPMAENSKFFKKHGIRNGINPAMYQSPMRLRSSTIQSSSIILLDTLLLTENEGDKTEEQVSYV

[11] = target: 5-hydroxytryptamine receptor 7 (Homo sapiens, UniProt P34969)
Sequence of 5-hydroxytryptamine receptor 7 (P34969 whole entry): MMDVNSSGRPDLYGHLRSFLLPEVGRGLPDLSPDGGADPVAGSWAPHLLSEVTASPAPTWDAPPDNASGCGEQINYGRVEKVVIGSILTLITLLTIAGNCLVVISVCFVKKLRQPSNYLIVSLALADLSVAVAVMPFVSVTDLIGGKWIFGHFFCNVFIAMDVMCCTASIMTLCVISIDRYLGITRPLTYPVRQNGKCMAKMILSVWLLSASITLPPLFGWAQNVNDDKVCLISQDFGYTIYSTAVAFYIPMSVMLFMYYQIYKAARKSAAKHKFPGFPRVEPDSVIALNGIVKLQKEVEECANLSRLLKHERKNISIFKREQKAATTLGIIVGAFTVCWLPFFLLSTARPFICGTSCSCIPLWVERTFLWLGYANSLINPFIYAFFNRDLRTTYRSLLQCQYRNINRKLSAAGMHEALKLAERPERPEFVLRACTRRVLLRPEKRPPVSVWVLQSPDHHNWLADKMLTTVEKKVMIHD

Sequence of Gamma-aminobutyric acid receptor subunit alpha-1 (P62813 whole entry): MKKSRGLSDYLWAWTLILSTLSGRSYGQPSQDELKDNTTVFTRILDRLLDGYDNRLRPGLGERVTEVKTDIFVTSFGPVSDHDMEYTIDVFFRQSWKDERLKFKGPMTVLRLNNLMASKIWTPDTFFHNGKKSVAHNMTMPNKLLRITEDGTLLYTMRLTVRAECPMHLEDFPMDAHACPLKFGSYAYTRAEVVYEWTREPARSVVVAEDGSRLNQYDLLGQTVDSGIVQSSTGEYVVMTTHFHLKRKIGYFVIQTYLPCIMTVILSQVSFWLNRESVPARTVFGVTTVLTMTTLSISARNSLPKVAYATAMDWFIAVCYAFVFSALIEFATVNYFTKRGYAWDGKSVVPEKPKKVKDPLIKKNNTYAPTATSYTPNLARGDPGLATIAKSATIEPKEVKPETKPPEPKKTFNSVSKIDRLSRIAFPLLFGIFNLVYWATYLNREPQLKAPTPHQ

Ki [1]: > 10 µM | Ki [2]: 5.06 µM | Ki [3]: 0.575 µM | Ki [4]: 3.69 µM | Ki (D(2) dopamine receptor): > 10 µM | Ki (Histamine H1 receptor): > 10 µM | Ki (D(1A) dopamine receptor): > 10 µM | Ki [5]: 3.94 µM | Ki [6]: > 10 µM | Ki [7]: > 10 µM | Ki [8]: 3.5 µM | Ki [9]: 0.006 µM | Ki [10]: 1.69 µM | Ki [11]: 4.85 µM
SMILES: CN(C)C1CCc2[nH]c3ccc(NC(=O)c4ccc(F)cc4)cc3c2C1 (centres undefined) [NSC_5311097]
